This is an account of results in patent US8101583B2, “1,4-benzothiepin-1,1-dioxide derivatives which are substituted with fluorine, method for producing the same, drugs containing said compounds and use thereof” (Sanofi-Aventis Deutschland GmbH, priority 2006, dated 2012).

The test addresses T1, human IBAT (Homo sapiens, UniProt Q12908).
T1 construct: Bases 599 to 1645 correspond to the complete coding region of human IBAT; expressed in transfected cells
T1 sequence (Q12908 1-348): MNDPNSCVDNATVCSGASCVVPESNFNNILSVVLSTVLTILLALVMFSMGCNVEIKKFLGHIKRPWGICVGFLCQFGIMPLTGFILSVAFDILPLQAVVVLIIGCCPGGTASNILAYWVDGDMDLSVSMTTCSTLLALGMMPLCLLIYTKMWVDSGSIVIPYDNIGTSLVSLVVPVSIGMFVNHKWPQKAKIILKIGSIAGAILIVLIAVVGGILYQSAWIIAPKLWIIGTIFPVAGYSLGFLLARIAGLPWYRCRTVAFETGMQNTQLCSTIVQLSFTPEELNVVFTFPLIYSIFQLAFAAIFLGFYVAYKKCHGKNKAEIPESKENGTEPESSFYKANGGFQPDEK
In words: in vitro IBAT inhibition assay: IBAT-dependent uptake of [3H]-taurocholic acid into CHO-hIBAT cells. The class given is cell-based. Conditions: taurocholic acid 10 μM, 60 min at room temperature, read-out: IC-50 (human IBAT). The source says: Preparation and procedure for the in vitro IBAT inhibition assay:
1. Cloning of an Expression Vector for Human IBAT
The cDNA (complementary deoxyribonucleic acid) of human IBAT was cloned by standard methods of molecular biology as described for example in Molecular Cloning: A Laboratory Manual by Joseph Sambrook and David Russell, and introduced into the pcDNA1 vector from Invitrogen. […] Bases 599 to 1645 correspond to the complete coding region of human IBAT.
2. Preparation of a Recombinant Cell Line with Constitutive Expression of Human IBAT
The expression vector for human IBAT was introduced by stable transfection into CHO (chinese hamster ovary) cells. To select single cell clones, 400 μg/ml Geneticin was added to the cell culture medium (Ham's F12 medium supplemented with 10% fetal calf serum, 100 units/ml penicillin, 100 units/ml streptomycin). The functionality of the single cell clones resulting from the selection was assayed via their uptake activity for radiolabeled taurocholic acid ([^3H]-TCA). The cell clone with the highest uptake activity for [^3H]-TCA, referred to hereinafter as CHO-hIBAT, was selected for the further assays and further cultured in the presence of 400 μg/ml Geneticin.
3. Measurement of the Inhibitory Effect of the Compound of the Invention on the IBAT-Dependent Uptake of Taurocholic Acid into Cells
CHO-hIBAT cells were seeded in a concentration of 40 000 cells per well in poly-D-lysine-coated 96-well plates in cell culture medium and cultured for 24 h. The cells were then washed once with sodium-free transport assay buffer (140 mM choline chloride, 2 mM potassium chloride, 1 mM magnesium chloride, 1 mM calcium chloride, 10 mM HEPES/Tris, pH 7.5) and subsequently incubated either with sodium-free transport assay buffer as negative control or with sodium-containing transport assay buffer (140 mM sodium chloride, 2 mM potassium chloride, 1 mM magnesium chloride, 1 mM calcium chloride, 10 mM HEPES/Tris, pH 7.5) as positive control at room temperature for 30 min. At the same time, the assay wells were also incubated in the presence of the compound to be investigated in varying concentration in sodium-containing transport assay buffer at room temperature for 30 min. The test substances were appropriately diluted in transport assay buffer (40 μl/well) starting from a 10 mM stock solution in dimethyl sulfoxide. The assay was then started by adding 10 μl/well of a mixture of radiolabeled taurocholic acid ([^3H]-TCA) and unlabeled taurocholic acid. The final concentration of taurocholic acid in the assay was 10 μM. After an incubation time of 60 min at room temperature, the reaction was stopped by adding 100 μl/well sodium-free transport assay buffer (4° C.), and each well was washed three times with sodium-free transport assay buffer. Finally, 100 μl of scintillation fluid were added to each well, and the radioactivity taken up into the cells was determined in a MicroBeta Scintillation Microplate Reader from Wallac.
The half-maximum inhibitory effect of the test compound (IC50 value, inhibitory concentration 50) was determined in the following way: • 1. Determination of the value for 0% inhibition. This is the measurement in the absence of substance, measured in sodium-containing transport assay buffer. • 2. Determination of the value for 100% inhibition. This is the measurement in the absence of substance, measured in sodium-free transport assay buffer. • 3. […]
With `CCCC[C@]1(CC)CS(=O)(=O)c2ccc(N(C)C)cc2[C@@H](c2cccc(NC(=O)N[C@@H]3O[C@H](CO)[C@@H](F)[C@H](O)[C@H]3O)c2)[C@H]1O` [Example 1], the IC50 was found to be 6.5 nM.

For the compound `CCCC[C@]1(CC)CS(=O)(=O)c2ccc(N(C)C)cc2[C@@H](c2cccc(NC(=O)N[C@@H]3O[C@H](COS(=O)(=O)O)C(F)(F)[C@H](O)[C@H]3O)c2)[C@H]1O` [Example 4], the IC50 was found to be 3.6 nM.

As for `CCCC[C@]1(CC)CS(=O)(=O)c2ccc(N(C)C)cc2[C@@H](c2cccc(NC(=O)N[C@@H]3O[C@H](CS(=O)(=O)O)[C@@H](F)[C@H](O)[C@H]3O)c2)[C@H]1O` [Example 5], the IC50 is 5.6 nM.

On to `CCCC[C@]1(CC)CS(=O)(=O)c2ccc(N(C)C)cc2[C@@H](c2cccc(NC(=O)N[C@@H]3O[C@H](COS(=O)(=O)O)[C@@H](F)[C@H](O)[C@H]3O)c2)[C@H]1O` [Example 2], for which the IC50 came out at 3.9 nM.

As for `CCCC[C@]1(CC)CS(=O)(=O)c2ccc(N(C)C)cc2[C@@H](c2cccc(NC(=O)N[C@@H]3O[C@H](CO)C(F)(F)[C@H](O)[C@H]3O)c2)[C@H]1O` [Example 3], the IC50 came out at 5.3 nM.
